This assay has as its target T1, epithelial sodium channels (Homo sapiens, UniProt P37088+P51168+P51170).
T1 construct: endogenous in cells; host or cells: A549 human lung epithelial cells (ATCC CCL-185)
T1 sequence (P37088 1-669): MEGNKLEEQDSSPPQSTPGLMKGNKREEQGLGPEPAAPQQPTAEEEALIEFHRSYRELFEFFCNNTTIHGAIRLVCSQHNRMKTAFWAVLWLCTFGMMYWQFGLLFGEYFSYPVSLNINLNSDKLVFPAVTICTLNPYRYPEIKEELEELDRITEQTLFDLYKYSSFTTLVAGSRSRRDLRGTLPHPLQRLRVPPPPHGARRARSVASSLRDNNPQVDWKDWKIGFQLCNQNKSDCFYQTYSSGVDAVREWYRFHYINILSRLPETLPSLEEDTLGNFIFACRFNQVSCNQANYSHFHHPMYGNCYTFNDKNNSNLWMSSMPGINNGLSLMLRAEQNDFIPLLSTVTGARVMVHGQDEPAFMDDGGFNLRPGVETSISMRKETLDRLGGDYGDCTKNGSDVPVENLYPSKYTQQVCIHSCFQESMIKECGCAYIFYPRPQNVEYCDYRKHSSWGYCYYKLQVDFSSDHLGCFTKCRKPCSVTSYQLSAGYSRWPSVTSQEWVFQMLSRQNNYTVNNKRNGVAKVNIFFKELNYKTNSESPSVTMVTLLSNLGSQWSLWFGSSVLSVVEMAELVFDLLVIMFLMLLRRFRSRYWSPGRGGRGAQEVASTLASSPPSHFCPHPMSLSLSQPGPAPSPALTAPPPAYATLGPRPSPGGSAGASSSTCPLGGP
T1 sequence (P51168 1-640): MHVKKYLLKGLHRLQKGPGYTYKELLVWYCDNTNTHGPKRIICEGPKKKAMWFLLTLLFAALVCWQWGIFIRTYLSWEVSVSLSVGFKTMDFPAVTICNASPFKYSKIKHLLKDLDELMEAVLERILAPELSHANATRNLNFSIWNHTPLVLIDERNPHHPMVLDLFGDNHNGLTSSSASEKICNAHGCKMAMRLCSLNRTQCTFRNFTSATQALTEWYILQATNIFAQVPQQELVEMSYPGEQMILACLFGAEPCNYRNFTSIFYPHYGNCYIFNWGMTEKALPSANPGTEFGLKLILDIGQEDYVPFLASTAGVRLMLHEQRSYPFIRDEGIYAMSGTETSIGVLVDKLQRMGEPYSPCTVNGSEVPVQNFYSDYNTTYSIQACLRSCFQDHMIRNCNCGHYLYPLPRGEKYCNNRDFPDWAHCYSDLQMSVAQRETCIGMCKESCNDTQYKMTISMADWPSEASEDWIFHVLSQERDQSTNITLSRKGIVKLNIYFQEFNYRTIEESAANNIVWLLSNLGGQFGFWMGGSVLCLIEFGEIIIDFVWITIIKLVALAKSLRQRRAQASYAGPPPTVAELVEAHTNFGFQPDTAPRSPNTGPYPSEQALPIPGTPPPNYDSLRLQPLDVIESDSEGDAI
T1 sequence (P51170 1-649): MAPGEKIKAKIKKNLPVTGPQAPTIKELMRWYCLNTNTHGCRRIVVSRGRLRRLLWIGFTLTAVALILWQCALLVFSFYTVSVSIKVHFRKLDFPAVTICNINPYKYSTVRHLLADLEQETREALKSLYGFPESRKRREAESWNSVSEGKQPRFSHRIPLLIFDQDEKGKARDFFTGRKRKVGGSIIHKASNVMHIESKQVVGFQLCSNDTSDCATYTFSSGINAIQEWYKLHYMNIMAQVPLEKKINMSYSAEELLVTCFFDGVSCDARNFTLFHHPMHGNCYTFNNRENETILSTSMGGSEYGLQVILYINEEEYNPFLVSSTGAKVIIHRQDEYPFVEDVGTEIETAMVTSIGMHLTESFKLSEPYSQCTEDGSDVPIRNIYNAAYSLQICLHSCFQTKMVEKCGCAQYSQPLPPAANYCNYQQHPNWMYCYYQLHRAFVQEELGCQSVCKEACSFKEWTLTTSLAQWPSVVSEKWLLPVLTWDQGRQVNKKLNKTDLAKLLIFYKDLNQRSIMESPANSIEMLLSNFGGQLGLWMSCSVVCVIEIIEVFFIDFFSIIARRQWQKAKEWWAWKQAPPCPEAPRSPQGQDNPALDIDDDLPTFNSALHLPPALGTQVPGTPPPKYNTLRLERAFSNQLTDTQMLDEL
Nature of the assay: Patch-clamp activation of sodium ion channels in A549 cells. Type of assay: cell-based. The note with it: 10 μM amiloride. An excerpt:
Furthermore, a method common in laboratories is to detect the activation of ion channels by means of patch-clamp experiments, and this is described, for example, in Clunes M. T. et al, J Physiol Volume 557, No. 3, 809-819 (Jun. 15, 2004). For patch-clamp examinations of ion channels, a glass cannula is stretched thin and filled with a neutral buffer solution. The glass cannula (patch-clamp pipette) is carefully pressed onto an intact epithelial cell. A piece of membrane is located below the pipette. An electrical resistance is thereby produced between the interior of the pipette and the external solution. An electrode attached to a sensitive amplifier dips into the pipette solution.
The electrophysiological experiments were performed on human A549 cells (ATTC No. CCL-185). A549 cells are human lung epithelial cells which are involved in the diffusion of water and electrolytes in the lungs.
The cells were suspended in DMEM-F-12 medium with 1% penicillin-streptomycin and 10% fetal calf serum, transferred into plastic cell culture vessels and cultivated in the incubator with 95% air and 5% CO2 at 37° C. The medium was changed 2 to 3 times per week. The cells double within approx. 22 hours and a cell concentration of more than 7×10^4 cells per cm^2 was not exceeded.
Macroscopic currents and single-channel currents were discharged from A549 cells in the “whole cell” and “cell-attached” configuration of the “patch-clamp” technique (Hamill et al, Pflugers Arch. 1981, 391(2):85-100, 1981). For the current dissipations in the “whole cell” configuration, the following bath and electrode solutions were used:
Bath solution: 135 mM sodium methane sulfonate, 10 mM NaCl, 2.7 mM KCl, 1.8 mM CaCl2, 2 mM MgCl2, 5.5 mM glucose, and 10 mM HEPES, pH 7.4. […]
The cover slips with the cells cultivated thereon were transferred into a test bath with a capacity of 1 ml, fixed on the microscope table (Axiovert 100, 400-fold magnification), and the cells were superfused with the above-described bath solution. […] In the “cell-attached” configuration, the current can be measured through individual ion channels beneath the electrode tip. In the “whole cell” configuration, the membrane was penetrated beneath the electrode tip so that the current flowing through all ion channels of the cell could be measured. […] Upon obtaining a Gigaohm seal, a defined membrane retaining potential was applied via a pre-amplifier (CV-4 Headstage, Axon Instruments) and an amplifier (Axopatch 1D, Axon Instr.) and the current thereby flowing through the ion channels was measured.
The pulse protocol consisted of a hyperpolarization to −100 mV for 1 s at an interval of 5 s. […] The current dissipations thus obtained were stored and analyzed by means of the program PCLAMP 6.0. […]
(In general: In patch-clamp work, channel activity is measured electrically.)

The values below come from patent US8372799B2, “Reverse protein” (Apeptico Forschung und Entwicklung GmbH, priority 2007, dated 2013).

For `N=C(N)NC(=O)c1nc(Cl)c(N)nc1N` [amiloride, reference compound], the “inhibition of ion channels (patch clamp)” value is on record as “inhibition of ion channels”.
